Measurements: ChEMBL document CHEMBL1201862, “PubChem BioAssay data set” (2004)
Structures can show the parent of a compound that is named as a salt.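 Dose response: 5 concentrations. Exposure: 48 h. Format: 96-well plates. Endpoint: linear interpolation; highest concentration if not reached. Abbreviation: GI50, concentration required for 50% inhibition of growth.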 Active and inactive are the calls of the source. Rule as the data show it: active = GI50 up to about 1.1 µM and inactive = higher.

How the values were obtained:
Assay in all cases: NCI anticancer screen, dose series, 48 h
CCRF-CEM = tested on: CCRF-CEM
EKVX = tested on: EKVX
HCT-116 = tested on: HCT-116
LOX IMVI = tested on: LOX IMVI
MOLT-4 = tested on: MOLT-4
NCI-H226 = tested on: NCI-H226
NCI-H23 = tested on: NCI-H23
OVCAR-3 = tested on: OVCAR-3
OVCAR-5 = tested on: OVCAR-5
RXF 393 = tested on: RXF 393
SF-268 = tested on: SF-268
SF-539 = tested on: SF-539
SK-MEL-5 = tested on: SK-MEL-5
SN12C = tested on: SN12C
TK-10 = tested on: TK-10
U-251 = tested on: U-251
UACC-62 = tested on: UACC-62
SR = tested on: SR

Measured: GI50

O=C(CCCCCCCCC(=O)OCCCn1cc(C(=O)NC(=O)OCc2ccccc2)c(=O)[nH]c1=O)OCCCn1cc(C(=O)NC(=O)OCc2ccccc2)c(=O)[nH]c1=O
inactive: CCRF-CEM > 100 µM | EKVX > 100 µM | HCT-116 > 100 µM | LOX IMVI > 100 µM | MOLT-4 > 100 µM | NCI-H226 > 100 µM | NCI-H23 > 100 µM | OVCAR-3 > 100 µM | OVCAR-5 > 100 µM | RXF 393 > 100 µM | SF-268 > 100 µM | SF-539 > 100 µM | SK-MEL-5 > 100 µM | SN12C > 100 µM | TK-10 > 100 µM | U-251 > 100 µM | UACC-62 > 100 µM

COc1ccc(O)c2c1C(=O)CCCC2=O
inactive: CCRF-CEM > 100 µM | EKVX 40.1 µM | HCT-116 > 100 µM | LOX IMVI > 100 µM | MOLT-4 > 100 µM | NCI-H23 > 100 µM | OVCAR-3 > 100 µM | OVCAR-5 > 100 µM | SF-268 > 100 µM | SF-539 > 100 µM | SK-MEL-5 > 100 µM | SN12C > 100 µM | TK-10 > 100 µM | U-251 > 100 µM | UACC-62 > 100 µM

CCCCCC#COC1CC(C)CC[C@@H]1C(C)C (stereo not given in full)
inactive: CCRF-CEM 15.4 µM | EKVX 42.7 µM | HCT-116 57.7 µM | LOX IMVI 15.6 µM | NCI-H226 > 100 µM | NCI-H23 > 100 µM | OVCAR-3 > 100 µM | OVCAR-5 71.4 µM | RXF 393 36.3 µM | SF-268 > 100 µM | SF-539 > 100 µM | SK-MEL-5 > 100 µM | SN12C > 100 µM | TK-10 > 100 µM | U-251 42.3 µM | UACC-62 62.7 µM

C=CCc1cc(OC)c2c(c1)C(O)CC(c1ccc(OC)c(OC)c1)O2 (stereo not given)
inactive: CCRF-CEM > 100 µM | EKVX > 100 µM | HCT-116 > 100 µM | MOLT-4 38.6 µM | NCI-H226 > 100 µM | NCI-H23 > 100 µM | OVCAR-3 > 100 µM | OVCAR-5 > 100 µM | SF-268 > 100 µM | SF-539 78.2 µM | SK-MEL-5 58.3 µM | SN12C > 100 µM | SR > 100 µM | TK-10 > 100 µM | U-251 > 100 µM | UACC-62 > 100 µM

CCN(CC)c1ccc(/N=C2\C=C(Cl)C(=O)c3ncccc32)c(C)c1
inactive: CCRF-CEM 1.68 µM | EKVX 11.2 µM | HCT-116 3.24 µM | LOX IMVI 5.15 µM | MOLT-4 2.88 µM | NCI-H23 3.24 µM | OVCAR-3 1.91 µM | RXF 393 3.92 µM | SF-539 12.4 µM | SK-MEL-5 3.18 µM | SN12C 7.41 µM | TK-10 4.37 µM | U-251 4.88 µM | UACC-62 3.8 µM

Nc1nc(Cl)c2ncn(CCCC(c3ccccc3)P(=O)(O)O)c2n1 (stereo not given)
inactive: CCRF-CEM > 100 µM | HCT-116 > 100 µM | LOX IMVI > 100 µM | NCI-H23 > 100 µM | OVCAR-3 > 100 µM | OVCAR-5 > 100 µM | SF-268 > 100 µM | SF-539 > 100 µM | SK-MEL-5 > 100 µM | SN12C > 100 µM | SR > 100 µM | TK-10 > 100 µM | U-251 > 100 µM | UACC-62 > 100 µM

Nc1nc(SCC(=O)c2ccccc2)c2[nH]cnc2n1
inactive: CCRF-CEM 51.6 µM | HCT-116 > 100 µM | LOX IMVI > 100 µM | MOLT-4 > 100 µM | NCI-H226 > 100 µM | NCI-H23 > 100 µM | OVCAR-3 > 100 µM | OVCAR-5 > 100 µM | SF-268 > 100 µM | SF-539 > 100 µM | SK-MEL-5 > 100 µM | SN12C > 100 µM | SR > 100 µM | TK-10 > 100 µM | U-251 > 100 µM | UACC-62 > 100 µM

COc1ccc(C2=NN(C(C)=O)c3nc4ccccc4nc3O2)cc1
inactive: CCRF-CEM > 100 µM | EKVX 45.6 µM | HCT-116 53.3 µM | MOLT-4 > 100 µM | NCI-H23 55.2 µM | OVCAR-3 > 100 µM | SF-268 31.3 µM | SF-539 17.8 µM | SN12C > 100 µM | SR > 100 µM | TK-10 21.3 µM | U-251 18.9 µM | UACC-62 61.4 µM

C/C(=N\NC(=O)CC#N)c1c(O)cc(C)oc1=O
inactive: CCRF-CEM > 100 µM | EKVX > 100 µM | HCT-116 > 100 µM | LOX IMVI > 100 µM | MOLT-4 > 100 µM | NCI-H226 > 100 µM | NCI-H23 > 100 µM | SF-268 > 100 µM | SF-539 > 100 µM | SK-MEL-5 > 100 µM | SN12C > 100 µM | SR > 100 µM | TK-10 > 100 µM | U-251 > 100 µM | UACC-62 > 100 µM

O=c1c(Sc2c(O)c3ccccc3c3ccccc3c2=O)c(O)c2ccccc2c2ccccc12
inactive: CCRF-CEM 14 µM | EKVX 89.3 µM | LOX IMVI 25.1 µM | MOLT-4 16.8 µM | NCI-H23 23.7 µM | OVCAR-3 44.6 µM | OVCAR-5 53.2 µM | RXF 393 50.7 µM | SF-268 20 µM | SF-539 42.3 µM | SK-MEL-5 29.9 µM | SN12C 20.9 µM | TK-10 > 100 µM | U-251 18.7 µM | UACC-62 29.2 µM

O=C1NC2OCC(O)C(O)C2O1 (stereo not given)
inactive: CCRF-CEM > 100 µM | EKVX > 100 µM | HCT-116 > 100 µM | LOX IMVI > 100 µM | MOLT-4 > 100 µM | NCI-H23 > 100 µM | OVCAR-3 > 100 µM | OVCAR-5 > 100 µM | SF-268 > 100 µM | SF-539 > 100 µM | SK-MEL-5 > 100 µM | SN12C > 100 µM | SR > 100 µM | TK-10 > 100 µM | U-251 > 100 µM | UACC-62 > 100 µM

CCCCC[C@@H]1CCCC2NC(CCCCCO[Si](c3ccccc3)(c3ccccc3)C(C)(C)C)CCC21 (stereo not given in full)
inactive: CCRF-CEM 7.82 µM | EKVX 17.3 µM | HCT-116 11.5 µM | LOX IMVI 12.2 µM | MOLT-4 12.6 µM | NCI-H226 18.7 µM | NCI-H23 15.7 µM | OVCAR-3 16.6 µM | OVCAR-5 20.1 µM | RXF 393 11.3 µM | SF-268 17.9 µM | SF-539 15.2 µM | SK-MEL-5 18.4 µM | SN12C 14.7 µM | TK-10 18.7 µM | U-251 14.1 µM | UACC-62 19.5 µM

CC1=NCCc2c1[nH]c1cc(O)ccc21 [HARMALOL HYDROCHLORIDE]
inactive: CCRF-CEM > 100 µM | EKVX > 100 µM | HCT-116 > 100 µM | LOX IMVI > 100 µM | MOLT-4 > 100 µM | NCI-H226 > 100 µM | NCI-H23 > 100 µM | OVCAR-3 > 100 µM | OVCAR-5 > 100 µM | RXF 393 > 100 µM | SF-268 > 100 µM | SF-539 > 100 µM | SK-MEL-5 > 100 µM | SN12C > 100 µM | TK-10 > 100 µM | UACC-62 > 100 µM
